Measured values published in patent publication US10966978B2, “Dose and regimen for HDM2-p53 interaction inhibitors” (Novartis AG, priority 2016, dated 2021).
Read-outs that look alike come from different tables or passages of the source.

System: patients with advanced TP53 wild-type (WT) leukemias
From the text: Patients with Ph+ ALL who show early markers of relapse in MRD surveillance can be considered for inclusion as long as other therapies such as TKIs are exhausted or cannot be given. • Tumor of the patient is TP53 wt characterized by, at a minimum, no mutations in exons 5, 6, 7 and 8, and the p53 status was obtained from a bone-marrow sample, collected no longer than 3 months before signing the main ICF. Safety and Tolerability Profile of Regimen 1B in Hematological Tumors

COc1ncc(-c2nc3c(n2C(C)C)[C@H](c2ccc(Cl)cc2)N(c2cc(Cl)cn(C)c2=O)C3=O)c(OC)n1 [HDM201, (S)-5-(5-Chloro-1-methyl-2-oxo-1,2-dihydro-pyridin-3-yl)-6-(4-chloro-phenyl)-2-(2,4-dimethoxy-pyrimidin-5-yl)-1-isopropyl-5,6-dihydro-1H-pyrrolo[3,4-d]imidazol-4-one]
4 (66.7) n (%): AE: Nausea (Regimen 1B N = 6, All Grades)
1 (16.7) n (%): AE: Acute Kidney Injury (Regimen 1B N = 6, All Grades) | AE: Asthenia (Regimen 1B N = 6, All Grades) | AE: Blood Bilirubin Increased (Regimen 1B N = 6, All Grades) | AE: Blood Phosphorus Increased (Regimen 1B N = 6, All Grades) | AE: Cellulitis (Regimen 1B N = 6, All Grades) | AE: Constipation (Regimen 1B N = 6, All Grades) | AE: Decreased Appetite (Regimen 1B N = 6, All Grades) | AE: Headache (Regimen 1B N = 6, All Grades) | AE: Hyperbilirubinaemia (Regimen 1B N = 6, All Grades) | AE: Hyperkalaemia (Regimen 1B N = 6, All Grades) | AE: Hyperphosphataemia (Regimen 1B N = 6, All Grades) | AE: Hypokalaemia (Regimen 1B N = 6, All Grades) | AE: Hyponatraemia (Regimen 1B N = 6, All Grades) | AE: Macular Oedema (Regimen 1B N = 6, All Grades) | AE: Neutropenia/Neutrophil Count Decreased (Regimen 1B N = 6, All Grades) | AE: Oedema Peripheral (Regimen 1B N = 6, All Grades) | AE: Pancytopenia (Regimen 1B N = 6, All Grades) | AE: Rectal Haemorrhage (Regimen 1B N = 6, All Grades)
0 n (%): AE: Iron Overload (Regimen 1A N = 16, Grade 3/4) | AE: Lip Oedema (Regimen 1A N = 16, Grade 3/4) | AE: Macular Oedema (Regimen 1A N = 16, Grade 3/4) | AE: Malaise (Regimen 1A N = 16, Grade 3/4) | AE: Mouth Haemorrhage (Regimen 1A N = 16, Grade 3/4) | AE: Nausea (Regimen 1A N = 16, Grade 3/4) | AE: Oedema (Regimen 1A N = 16, Grade 3/4) | AE: Oral Disorder (Regimen 1A N = 16, Grade 3/4) | AE: Pain In Extremity (Regimen 1A N = 16, Grade 3/4) | AE: Pancytopenia (Regimen 1A N = 16, Grade 3/4) | AE: Pneumonia (Regimen 1A N = 16, Grade 3/4) | AE: Pollakiuria (Regimen 1A N = 16, Grade 3/4) | AE: Pyrexia (Regimen 1A N = 16, Grade 3/4) | AE: Rash (Regimen 1A N = 16, Grade 3/4) | AE: Rash Erythematous (Regimen 1A N = 16, Grade 3/4) | AE: Rash Papular (Regimen 1A N = 16, Grade 3/4) | AE: Rectal Haemorrhage (Regimen 1A N = 16, Grade 3/4) | AE: Renal Failure (Regimen 1A N = 16, Grade 3/4) | AE: Skin Exfoliation (Regimen 1A N = 16, Grade 3/4) | AE: Vomiting (Regimen 1A N = 16, Grade 3/4) | AE: Weight Decreased (Regimen 1A N = 16, Grade 3/4) | AE: White Blood Cell Count Decreased (Regimen 1A N = 16, Grade 3/4) | AE: Abdominal Discomfort (Regimen 1B N = 6, All Grades) | AE: Abdominal Pain (Regimen 1B N = 6, All Grades) | AE: Abdominal Pain Upper (Regimen 1B N = 6, All Grades) | AE: Amylase Increased (Regimen 1B N = 6, All Grades) | AE: Arthralgia (Regimen 1B N = 6, All Grades) | AE: Atrial Fibrillation (Regimen 1B N = 6, All Grades) | AE: Atypical Pneumonia (Regimen 1B N = 6, All Grades) | AE: Balanitis Candida (Regimen 1B N = 6, All Grades) | AE: Blood Alkaline Phosphatase Increased (Regimen 1B N = 6, All Grades) | AE: Blood Creatinine Increased (Regimen 1B N = 6, All Grades) | AE: Blood Uric Acid Increased (Regimen 1B N = 6, All Grades) | AE: Bone Marrow Failure (Regimen 1B N = 6, All Grades) | AE: C-Reactive Protein Increased (Regimen 1B N = 6, All Grades) | AE: Cardiac Failure (Regimen 1B N = 6, All Grades) | AE: Chronic Graft Versus Host Disease (Regimen 1B N = 6, All Grades) | AE: Conjunctival Haemorrhage (Regimen 1B N = 6, All Grades) | AE: Cough (Regimen 1B N = 6, All Grades) | AE: Cystitis Viral (Regimen 1B N = 6, All Grades) | AE: Cytomegalovirus Infection (Regimen 1B N = 6, All Grades) | AE: Diarrhoea (Regimen 1B N = 6, All Grades) | AE: Dyspepsia (Regimen 1B N = 6, All Grades) | AE: Dyspnoea (Regimen 1B N = 6, All Grades) | AE: Epistaxis (Regimen 1B N = 6, All Grades) | AE: Fatigue (Regimen 1B N = 6, All Grades) | AE: Gamma-Glutamyltransferase Increased (Regimen 1B N = 6, All Grades) | AE: General Physical Health Deterioration (Regimen 1B N = 6, All Grades) | AE: Gingival Bleeding (Regimen 1B N = 6, All Grades) | AE: Graft Versus Host Disease (Regimen 1B N = 6, All Grades) | AE: Haemoglobin Decreased (Regimen 1B N = 6, All Grades) | AE: Hyperglycaemia (Regimen 1B N = 6, All Grades) | AE: Hypoalbuminaemia (Regimen 1B N = 6, All Grades) | AE: Hypocalcaemia (Regimen 1B N = 6, All Grades) | AE: Hypomagnesaemia (Regimen 1B N = 6, All Grades) | AE: Hypophosphataemia (Regimen 1B N = 6, All Grades) | AE: Hypotension (Regimen 1B N = 6, All Grades) | AE: Infection (Regimen 1B N = 6, All Grades) | AE: Infective Glossitis (Regimen 1B N = 6, All Grades) | AE: Iron Overload (Regimen 1B N = 6, All Grades) | AE: Leukopenia (Regimen 1B N = 6, All Grades) | AE: Lip Oedema (Regimen 1B N = 6, All Grades) | AE: Lipase Increased (Regimen 1B N = 6, All Grades) | AE: Malaise (Regimen 1B N = 6, All Grades) | AE: Mouth Haemorrhage (Regimen 1B N = 6, All Grades) | AE: Oedema (Regimen 1B N = 6, All Grades) | AE: Oral Disorder (Regimen 1B N = 6, All Grades) | AE: Pain In Extremity (Regimen 1B N = 6, All Grades) | AE: Pneumonia (Regimen 1B N = 6, All Grades) | AE: Pollakiuria (Regimen 1B N = 6, All Grades) | AE: Pyrexia (Regimen 1B N = 6, All Grades) | AE: Rash (Regimen 1B N = 6, All Grades) | AE: Rash Erythematous (Regimen 1B N = 6, All Grades) | AE: Rash Papular (Regimen 1B N = 6, All Grades) | AE: Renal Failure (Regimen 1B N = 6, All Grades) | AE: Skin Exfoliation (Regimen 1B N = 6, All Grades)
8 (50.0) n (%): AE: Thrombocytopenia/Platelet Count Decreased (Regimen 1A N = 16, Grade 3/4)
2 (33.3) n (%): AE: Anaemia (Regimen 1B N = 6, All Grades) | AE: Febrile Neutropenia (Regimen 1B N = 6, All Grades) | AE: Hyperuricaemia (Regimen 1B N = 6, All Grades)
1 (6.3) n (%): AE: Stomatitis (Regimen 1A N = 16, Grade 3/4) | AE: Subarachnoid Haemorrhage (Regimen 1A N = 16, Grade 3/4)
6 (37.5) n (%): AE: Neutropenia/Neutrophil Count Decreased (Regimen 1A N = 16, Grade 3/4)
7 (43.8) n (%): AE: Tumour Lysis Syndrome (Regimen 1A N = 16, Grade 3/4)
2 (12.5) n (%): AE: Leukopenia (Regimen 1A N = 16, Grade 3/4) | AE: Lipase Increased (Regimen 1A N = 16, Grade 3/4)
12 (75.0) n (%): AE: Total (Regimen 1A N = 16, Grade 3/4)
